Experimental data: patent US20250339396A1 (COSMAS THERAPEUTICS DEVELOPMENT INC., priority 2021, published 2025)

Experiments:
[1] = in vivo; cited from earlier work
[2] = in vivo; cited from earlier work; remark: listed apart in the source
[3] = Pharmacokinetic study in male Beagle dogs (UCM924 measured in plasma); assay type: in vivo; settings: dog, UCM924 plasmatic level, UCM924 2 mg/kg IV
Procedure: (§1) In vivo pharmacokinetic studies of prodrug D were carried in male rats (Sprague-Dawley, weight 210-214 grams) and male dogs (Beagles, weight 8960-9820 grams). Animals were housed under standard conditions and had free access to water and standard laboratory diet. Care and husbandry of animals were in conformity with the institutional guidelines, in compliance with national and international laws and policies (EEC Council Directive 86/609, OJL 358m, 1, Dec. 122, 1987; NIH Guide for the care and Use of Laboratory Animals, NIH Publication No. 86-23, 1985). The compounds were dissolved in water containing 40% PEG 400 at a concentration of 15 mg/ml (clear solution) for the PO dose for Dog, or in water containing 40% PEG 400 at a concentration of 12.5 mg/ml (clear solution) for the PO dose for Rat. Dogs were randomly assigned to treatment groups (n=3) and received a single oral administration (15 mg/kg) through oral gavage of Prodrug D and the level of the active metabolite UCM924 was then measured. Serial blood samples (200 uL) were collected from caudal vein at 5, 15, 30, 60, 120, 240, 360, 480 and 1440 min after PO administration. […] UCM924 (20 mg/kg) was also administered per os in rats and IV in dogs (2 mg/kg) and it was measured in plasma. […]

[4] = Stability of Prodrug D in solvents by HPLC; assay type: physicochemical; settings: HPLC Method 2
Procedure: For this test, we used HPLC with different solvent systems. […] Therefore, after initial assessment, this method was used for the remaining tests. Prodrug D or UCM924 (comparator) were dissolved in the different solvents listed in the table below and, after the waiting period indicated, HPLC tests were carried out according to the above. The results are shown in the table below, in which the percentages represent the quantity of prodrug D or UCM924 detected in the samples.

[5] = Oral bioavailability and brain penetrance of UCM765 and UCM924
[6] = Pharmacokinetic study in male rats (UCM924 measured in plasma); assay type: in vivo; settings: Sprague-Dawley, rat, po, UCM924 plasmatic level, UCM924 20 mg/kg per os
Procedure: as §1, with “Rats” for “Dogs”, “(50” for “(15”, “mg/kg)” for “mg/kg) through oral gavage”, “administration. Blood samples were collected into a prechilled commercial tube (Jiangsu Kangjian medical supplies co., LTD) containing Potassium (K2) EDTA (0.85-1.15 mg).” for “administration.”

SMILES: CC(=O)NCCN(c1ccc(F)cc1)c1cccc(Br)c1 [UCM924, N-{2-[(3-bromophenyl)-(4-fluorophenyl)amino]ethyl}acetamide]
- motor impairments in the RotaRod test [1]: did not produce any motor impairments
- antinociceptive properties in tests for chronic neuropathic pain [2]: potent antinociceptive properties
- AUC(0-t) [3]: 1690 ± 275 ng·h/mL
- half-life [3]: 1.79 ± 0.4 h
- quantity detected in the sample by HPLC ([4]; 1N HCl, overnight at rt, pH ~0): 14.79%
- quantity detected in the sample by HPLC ([4]; 40% PEG400:60% H2O, overnight at rt, pH ~7.0): 40.16%
- quantity detected in the sample by HPLC ([4]; H2O, overnight at rt, pH ~7.0): 80.09%
- quantity detected in the sample by HPLC ([4]; Saturated NaHCO3aq, 2 h at rt, pH ~8.5): 62.33%
- Kp ([5]; brain): 2.5
- bioavailability ([5]; in vivo, po): 6%
- AUC(0-t) [6]: 97.7 ± 61 ng·h/mL
- Cmax [6]: 42 ± 34 ng/mL
